One series relates to PC3. Description: MTT cell viability test, PC3. The series is classed as cell-based. As to conditions: Homo sapiens, PC-3, 72 h, up to 3 days, read-out: tumor cell viability. As to the method:
(§1) Ohmline nanoparticles were used to deliver docetaxel into different cancer cell lines. Cell viability was determined using tetrazolium salt reduction method (MTT)(CyQUANT™ MTT Cell Viability Assary, Thermo Fisher Scientific product V13154: https://www.thermofisher.com/order/catalog/product/V13154?ef_id=4431670897231bd9f4af0 436727d3335: G: s&s_kwcid=AL!3652!10!77240846955634!77240903742099&cid=bid_pca_i va_r01_co_cp1359_pjt0000_bid00000_Ose_bng_nt_pur_con&msclkid=4431670897231bd9f 4af0436727d3335 #/V13154), that reflects the number of viable cells. 6500 cells were seeded at day=0 in a 48 wells plate. Each well was filled up with the regular medium of the cancer cell. At day=1 the medium was aspirated and replaced with new media for each formulation to be tested. Cells were incubated up to 3 days.
(§2) At the end of the incubation, the medium was aspirated and replaced with MTT solution at 0.5 mg/ml concentration. The plate was incubated at 37° C. by 30-45 min. After incubation the supernatant was aspirated, and the formed crystals dissolved with DMSO and gently agitation at room temperature protected from the light. 200 μl were transferred from each well to 96 well plates to measure the absorbance at 570 nm. (see FIGS. 8A, 8B and 8C).
(§3) Ohmline control at 1 and 5 μM, in MLV formulation.
(§4) DOX is docetaxel at 0,5 and 1 nM, in DMSO. […]
On the technique in general: Formazan colour is commonly taken as a measure of viable cells.

The next series relates to MDA MB 435. Description: MTT cell viability test, MDA MB 435. As to conditions: Homo sapiens, 72 h, up to 3 days, read-out: tumor cell viability. The series is classed as cell-based. How it is done:
as §1, §2, §3, §4

For a further series, the system named is MCF7. Description: MTT cell viability test, MCF7. The series is classed as cell-based. As to conditions: Homo sapiens, 72 h, up to 3 days, read-out: tumor cell viability. How it is done:
as §1, §2, §3, §4

A further series relates to MDA MB 231. Description: MTT cell viability test, MDA MB 231. The conditions noted are these: Homo sapiens, 72 h, up to 3 days, read-out: tumor cell viability. It is filed as cell-based. How it is done: as §1, §2, §3, §4
In the next series the test system is SW620. Description: MTT cell viability test, SW620. The series is classed as cell-based. The conditions noted are these: Homo sapiens, SW-620, 72 h, up to 3 days, read-out: tumor cell viability. As to the method: as §1, §2, §3, §4
Series [1] deals with MDA-MB-231, HCT116, PC3, HaCaT and fibroblasts. The conditions noted are these: 25 μM for 48 h; cited from earlier work.
Series [2] in a line: ADME studies, distribution. It is filed as in vivo.
The test system of series [3] is SK3-expressing cancer cells. The conditions noted are these: at 10 nM; cited from earlier work.
For series [4] the following is noted: Ames tests; cited from earlier work. (In general: The Ames test detects mutagens through reverse mutation in bacteria.)
For series [5] the following is noted: cited from earlier work.
The conditions of series [6]: cited from earlier work. The source holds these as a separate data set.
The conditions of series [7]: 15 mg/Kg, up to 4 months treatment; cited from earlier work.
A further series addresses SK3 channel (Homo sapiens, UniProt Q9UGI6). The conditions noted are these: cited from earlier work.
For the next series, the target named is IKCa/SK4 channel (Homo sapiens, UniProt O15554). As to conditions: cited from earlier work.
Chain of IKCa/SK4 channel (O15554 whole entry): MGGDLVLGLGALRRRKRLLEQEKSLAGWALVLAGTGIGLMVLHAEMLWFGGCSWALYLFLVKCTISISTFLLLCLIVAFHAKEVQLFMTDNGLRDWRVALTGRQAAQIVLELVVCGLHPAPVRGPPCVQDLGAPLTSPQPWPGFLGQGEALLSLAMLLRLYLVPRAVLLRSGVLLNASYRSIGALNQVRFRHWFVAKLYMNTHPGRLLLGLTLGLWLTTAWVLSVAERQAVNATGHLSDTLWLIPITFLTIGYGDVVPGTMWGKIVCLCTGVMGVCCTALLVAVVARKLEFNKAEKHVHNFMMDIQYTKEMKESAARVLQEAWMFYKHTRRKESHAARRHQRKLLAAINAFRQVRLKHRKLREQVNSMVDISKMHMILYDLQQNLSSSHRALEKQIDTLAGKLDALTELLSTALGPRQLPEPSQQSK
Another series deals with SK2 channel (Homo sapiens, UniProt Q9H2S1). As to conditions: cited from earlier work.
Chain of SK2 channel (Q9H2S1 whole entry): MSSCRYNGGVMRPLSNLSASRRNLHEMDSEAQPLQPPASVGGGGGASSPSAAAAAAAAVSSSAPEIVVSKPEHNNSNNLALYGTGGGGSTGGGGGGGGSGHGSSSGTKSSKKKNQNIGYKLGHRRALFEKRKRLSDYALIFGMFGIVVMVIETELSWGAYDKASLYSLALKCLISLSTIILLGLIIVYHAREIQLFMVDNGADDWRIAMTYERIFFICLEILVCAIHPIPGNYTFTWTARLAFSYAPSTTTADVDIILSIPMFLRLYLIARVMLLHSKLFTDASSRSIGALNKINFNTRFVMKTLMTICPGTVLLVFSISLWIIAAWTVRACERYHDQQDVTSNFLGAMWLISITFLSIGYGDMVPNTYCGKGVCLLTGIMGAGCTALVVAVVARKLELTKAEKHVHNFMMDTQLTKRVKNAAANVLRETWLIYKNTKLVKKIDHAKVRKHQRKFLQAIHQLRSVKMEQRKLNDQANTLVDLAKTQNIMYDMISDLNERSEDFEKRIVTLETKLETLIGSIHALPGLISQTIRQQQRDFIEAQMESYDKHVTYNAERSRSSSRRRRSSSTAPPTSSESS
A further series has as its system SKCa channels. The conditions noted are these: cited from earlier work.
A further series deals with protein kinase C (PKC). The conditions noted are these: cited from earlier work.
The target in series [8] is receptors for platelet activating factor (PAF) (Homo sapiens, UniProt P25105). As to conditions: cited from earlier work.
Chain of receptors for platelet activating factor (PAF) (P25105 whole entry): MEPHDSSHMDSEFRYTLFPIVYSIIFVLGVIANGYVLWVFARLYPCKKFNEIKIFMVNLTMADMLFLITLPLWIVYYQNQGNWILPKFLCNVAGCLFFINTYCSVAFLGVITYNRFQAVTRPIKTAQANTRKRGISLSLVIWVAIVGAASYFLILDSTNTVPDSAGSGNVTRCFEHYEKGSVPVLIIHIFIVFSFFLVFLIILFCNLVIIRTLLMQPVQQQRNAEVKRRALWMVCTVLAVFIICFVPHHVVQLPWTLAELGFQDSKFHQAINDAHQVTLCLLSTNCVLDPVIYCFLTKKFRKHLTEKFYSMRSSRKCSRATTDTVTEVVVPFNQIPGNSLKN
Series [9] deals with receptors for lysophosphatidic acid (LPA). As to conditions: cited from earlier work.
For a further series, the system named is SK3-expressing cells. As to conditions: in vivo; cited from earlier work.
The conditions of series [10]: rodents; no observable tissue damage by a pathologist; cited from earlier work.

Molecules are shown by their SMILES.

With `CC(=O)O[C@@]12CO[C@@H]1C[C@H](O)[C@@]1(C)C(=O)[C@H](O)C3=C(C)[C@@H](OC(=O)[C@H](O)[C@@H](NC(=O)OC(C)(C)C)c4ccccc4)C[C@@](O)([C@@H](OC(=O)c4ccccc4)[C@H]21)C3(C)C` [DOX, docetaxel], the viability at 0.0005 µM in the series with PC3 (DOX 0.5 nM in DMSO) worked out at 79%; in the series on MDA MB 435 (DOX 0.5 nM in DMSO), 100%; with MCF7 (DOX 0.5 nM in DMSO), 97%; with MDA MB 231 (DOX 0.5 nM in DMSO) it was 72%; with SW620 (DOX 0.5 nM in DMSO), 99%. The viability at 0.001 µM with PC3 (DOX 1 nM in DMSO) is 73%; in the series on MDA MB 435 (DOX 1 nM in DMSO), 69%; in the series with MCF7 (DOX 1 nM in DMSO), 84%; in the series on MDA MB 231 (DOX 1 nM in DMSO) it was 73%; in the series with SW620 (DOX 1 nM in DMSO) it was 92%.
With `CCCCCCCCCCCCCCCCCCOCC(COP(=O)([O-])OCC[N+](C)(C)C)OC` (centres unmarked) [Edelfosine], the cells still alive in series [1] is on record as roughly 0%.
On to `CCCCCCCCCCCCCCCCOCC(COC1OC(CO)C(OC2OC(CO)C(O)C(O)C2O)C(O)C1O)OC` (centres unmarked) [Ohmline, 1-O-hexadecyl-2-O-methyl-sn-glycero-3-lactose], for which, in series [2], the distribution to brain entry is listed as “able to cross the blood brain barrier”. For the same compound, the “reduction of migration of SK3-expressing cancer cells (efficiency)” value in series [3] is given as 50%. Also, the mutagenic potential result in series [4] is given as “no mutagenic potential”. For the same compound, in [5] (at 100 μM), the micronuclei test effect entry is recorded as “weak positive effect”. Also, in series [5] (concluded from Ames and micronuclei tests), the “in vitro concentrations with no toxicity or genotoxicity” value is recorded as “lower than 10 μM”. The persistence in brain result in series [6] (after the end of administration) is recorded as “present in brain still two weeks after the end of its administration”. For the same compound, in series [6] (stomach, intestine, kidney, liver, heart and brain), the incorporation in tissues result was “incorporated in the tissues tested”. Also, the acute toxicity result in [7] is given as “no acute toxicity”. Also, at SK3 channel (SK3 channel), the IC50 was 300 nM. Also, the “potency SK3 versus SK1 channel” value at SK3 channel is given as “greater for SK3 channel than for SK1 channel”. Also, the “effect on IKCa/SK4 channel” value on IKCa/SK4 channel is listed as “did not affect”. Besides, the “effect on SK2 channel” value at SK2 channel is listed as “only slightly but not significantly affected”. Also, the “displacement of apamin from SKCa channels” value in the series with SKCa channels is recorded as “did not displace”. For the same compound, the “effect on protein kinase C (PKC)” value in the series on protein kinase C (PKC) is “no effect”. Also, the “effect on receptors for platelet activating factor (PAF)” value in series [8] is reported as “no effect”. For the same compound, the “effect on receptors for lysophosphatidic acid (LPA)” value in [9] is “no effect”. Moreover, the metastasis development entry in the series with SK3-expressing cells is “reduce not only bone metastasis development but also lung and lymph node metastases”. In addition, in series [10], the tolerance and safety entry was “good tolerance and an apparent safety”.

Broadly, the viability is a per cent measure of how many cells are alive, often set against a control. In general, IC50 refers to the concentration that inhibits the measured activity by half.
